Test results taken from BindingDB's records for doi:10.7270/Q23T9FMP (The Scripps Research Institute Molecular Screening Center, 2007).

Target: Steroidogenic factor 1 (Homo sapiens, UniProt Q13285)
Test: SF-1 activators, concentration-response, dose response, cell-based, CHO-K1, Gal4-SF-1 LBD, luciferase luminescence (AID 692)
Conditions: not given

Sequence of Steroidogenic factor 1 (Q13285 whole entry, the tested form may be a part): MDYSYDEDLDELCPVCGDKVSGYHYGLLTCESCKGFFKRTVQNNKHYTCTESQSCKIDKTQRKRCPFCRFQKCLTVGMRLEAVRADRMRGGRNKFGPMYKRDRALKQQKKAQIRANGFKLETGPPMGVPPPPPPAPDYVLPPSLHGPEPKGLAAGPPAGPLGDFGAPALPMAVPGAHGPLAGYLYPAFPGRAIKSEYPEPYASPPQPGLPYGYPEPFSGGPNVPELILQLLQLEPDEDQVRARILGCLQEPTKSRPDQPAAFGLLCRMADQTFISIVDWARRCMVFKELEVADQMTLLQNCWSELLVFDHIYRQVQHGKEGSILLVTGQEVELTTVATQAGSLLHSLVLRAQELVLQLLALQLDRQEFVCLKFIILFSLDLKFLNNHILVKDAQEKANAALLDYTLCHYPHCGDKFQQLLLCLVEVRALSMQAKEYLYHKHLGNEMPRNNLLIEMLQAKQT

First: O=c1c2ccccc2nnn1CSc1nnc(COc2ccc(Cl)cc2)n1Cc1ccco1 [3-[[5-[(4-chloranylphenoxy)methyl]-4-(furan-2-ylmethyl)-1,2,4-triazol-3-yl]sulfanylmethyl]-1,2,3-benzotriazin-4-one]
Second: Clc1ccc(-n2ncc3c(NCc4ccccn4)ncnc32)cc1 [1-(4-chlorophenyl)-N-(2-pyridinylmethyl)-4-pyrazolo[3,4-d]pyrimidinamine]
The EC50 of the first is higher: > 3670 nM for the first, 2800 nM for the second. The second is the more potent here.

Going from `Cc1nc2sc(-c3ccccc3)cc2c(=O)n1-n1cccc1` [2-methyl-6-phenyl-3-(1-pyrrolyl)-4-thieno[2,3-d]pyrimidinone] to `COc1cccc(C(=O)Nc2cccc(-c3nnc(-c4ccccc4)o3)c2)c1` [3-methoxy-N-[3-(5-phenyl-1,3,4-oxadiazol-2-yl)phenyl]benzamide], the EC50 rises from 477 nM to > 1220 nM.

First: Nc1nc2c(s1)CCc1c-2cnn1-c1ccccc1 [MLS000085948]
Second: Cc1ccc(C2C(C(=O)c3cnn(-c4ccccc4)c3C)C(=O)C(=O)N2CCN(C)C)o1 (stereo unspecified) [(4E)-1-[2-(dimethylamino)ethyl]-4-[hydroxy-(5-methyl-1-phenyl-4-pyrazolyl)methylidene]-5-(5-methyl-2-furanyl)pyrrolidine-2,3-dione]
The EC50 of the first is 4.7-fold lower: 760 nM for the first, 3590 nM for the second.

First: CCOC(=O)CSc1nc(-c2ccncc2)ccc1C#N [2-[(3-cyano-6-pyridin-4-yl-2-pyridinyl)thio]acetic acid ethyl ester]
Second: COC(=O)c1ccc(C(=O)C(C#N)c2nc3ccccc3s2)cc1 (stereo unspecified) [4-[(2Z)-2-(3H-1,3-benzothiazol-2-ylidene)-2-cyano-1-oxoethyl]benzoic acid methyl ester]
The EC50 of the first is 1.7-fold lower: 1620 nM for the first, 2710 nM for the second.

`O=c1[nH]c2ccccc2nc1-c1cccs1` [SMR000068248] and `COc1ccccc1Nc1nc2ccccc2[nH]1` [N-(2-methoxyphenyl)-1H-benzimidazol-2-amine] are within 1.5-fold of each other in EC50: 7840 nM for the first, 6470 nM for the second.

First: COc1ccc(C(=O)CC=Nc2cccc(C)n2)cc1OC
Second: COc1ccc(OC)c2sc(NC(=O)c3ccc(Br)s3)nc12 [5-bromanyl-N-(4,7-dimethoxy-1,3-benzothiazol-2-yl)thiophene-2-carboxamide]
The EC50 of the first is lower: 401 nM for the first, > 99000 nM for the second.

Going from `CC(=O)c1c(C)[nH]c(C(=O)Nc2ccc3c(c2)OCCO3)c1C` to `CC(=N)C(C#N)C(=O)CSc1ccc2c(c1)OCCO2` (stereo unspecified) [(E)-3-amino-2-[2-(2,3-dihydro-1,4-benzodioxin-6-ylsulfanyl)acetyl]but-2-enenitrile], the EC50 rises from 466 nM to 2890 nM (6.2-fold).

Compared with `Cc1cc2n(n1)C(c1ccc(N(C)C)cc1)Nc1ccccc1-2` (stereo unspecified) [SMR000015202], `COc1ccc2c(c1OC)C(=O)N1c3ccccc3SC21` (stereo unspecified) [1,2-dimethoxy-4bH-isoindolo[1,2-b][1,3]benzothiazol-11-one] is lower in EC50: > 11000 nM for the first, 827 nM for the second.

First: CN(C)C=Nc1ncnc2c1cnn2-c1ccc(C(F)(F)F)cn1 [MLS000087855]
Second: CCCn1c(C)cc(C(=O)COc2ncnc3sccc23)c1C [1-(2,5-dimethyl-1-propyl-3-pyrrolyl)-2-(4-thieno[2,3-d]pyrimidinyloxy)ethanone]
The EC50 of the first is higher: > 99000 nM for the first, 585 nM for the second. The second is the more potent here.

First: COc1ccc(NC(=O)c2ccc3c(c2)OCO3)cc1Cl [MLS000053302]
Second: Cc1ccc(C(=O)Nc2nnc(-c3cccs3)s2)cc1C [3,4-dimethyl-N-(5-thiophen-2-yl-1,3,4-thiadiazol-2-yl)benzamide]
The EC50 of the first is 1.7-fold lower: 589 nM for the first, 989 nM for the second. The first is the more potent here.

First: Cc1cnc(NC(=O)CSc2nnc(-c3ccccc3)o2)s1 [MLS000077990]
Second: O=C(CSc1nc2ccccc2o1)Nc1nc2ccccc2s1 [2-(Benzooxazol-2-ylsulfanyl)-N-benzothiazol-2-yl-acetamide]
The EC50 of the first is lower: 1920 nM for the first, > 99000 nM for the second.

Compared with `O=C(Nc1ccc(CN2CCOCC2)cc1)c1cc2ccccc2o1` [MLS000062478], `c1ccc2nc3c(nc2c1)c1ccccc1n3CCN1CCOCC1` [4-(2-indolo[3,2-b]quinoxalin-6-ylethyl)morpholine] is higher in EC50: 720 nM for the first, > 11000 nM for the second.

Compared with `O=C(Nc1ccc(-c2cn3ccsc3n2)cc1)C1CC1` [MLS000053249], `CCCOC(=O)c1ccc(NC(=O)C2CCCO2)cc1` (stereo unspecified) [4-(tetrahydrofuran-2-carbonylamino)benzoic acid propyl ester] is 2.1-fold higher in EC50: 1190 nM for the first, 2490 nM for the second.

`O=C(NCc1ccco1)c1cc2c(s1)CCCCC2` [MLS000065859] and `O=C(Nc1nnc(C2CCCCC2)s1)c1ccco1` [MLS000039439] cannot be ordered by EC50: 3100 nM for the first, > 1220 nM for the second.

Compared with `COc1ccc(-c2cc(C(=O)N3CCCCC3)no2)cc1OC` [1-{[5-(3,4-dimethoxyphenyl)isoxazol-3-yl]carbonyl}piperidine], `COc1cc(N2CCCC2)c(OC)cc1C=c1sc2nc3ccccc3n2c1=O` [2-(2,5-dimethoxy-4-pyrrolidino-benzylidene)thiazolo[3,2-a]benzimidazol-1-one] is 3.8-fold higher in EC50: 3840 nM for the first, 14600 nM for the second. The first is the more potent here.

First: Nn1c(SCC(=O)Nc2ccc(F)cc2F)nnc1-c1cccnc1 [2-[(4-amino-5-pyridin-3-yl-1,2,4-triazol-3-yl)sulfanyl]-N-(2,4-difluorophenyl)acetamide]
Second: Cc1ccc(C(=O)Nc2ncc(Cc3ccccc3)s2)o1 [5-Methyl-furan-2-carboxylic acid (5-benzyl-thiazol-2-yl)-amide]
The EC50 of the first is higher: > 11000 nM for the first, 168 nM for the second.

First: C=CCn1c(C)cc(C(=O)CSc2nc(O)c3ccccc3n2)c1C [2-[2-(2,5-dimethyl-1-prop-2-enyl-pyrrol-3-yl)-2-oxidanylidene-ethyl]sulfanyl-1H-quinazolin-4-one]
Second: CC(=NC1CCCC1)c1c(C)[nH]n(-c2nc3ccccc3s2)c1=O [(4Z)-2-(1,3-benzothiazol-2-yl)-4-[1-(cyclopentylamino)ethylidene]-5-methylpyrazol-3-one]
The EC50 of the first is 1.8-fold lower: 410 nM for the first, 741 nM for the second.

`CC1(C)Cc2c(sc(NC(=O)c3ccc(Br)o3)c2C#N)CO1` [5-bromanyl-N-(3-cyano-5,5-dimethyl-4,7-dihydrothieno[2,3-c]pyran-2-yl)furan-2-carboxamide] and `CC1(C)CC(=O)C(=CNc2ccc3[nH]ncc3c2)C(=O)C1` [SMR000111453] cannot be ordered by EC50: > 407 nM for the first, > 11000 nM for the second.

First: CCc1ccc(C(=O)NCc2cccs2)s1 [5-ethyl-N-(2-thenyl)thiophene-2-carboxamide]
Second: CCOC(=O)c1cc2cc(OC)ccc2[nH]1 [MLS000071430]
The EC50 of the first is 2.3-fold higher: 3230 nM for the first, 1380 nM for the second. The second is the more potent here.

Compared with `CC1(C)CC(=O)C(=CNc2ccccc2)C(=O)C1` [SMR000054233], `CCOC(=O)c1[nH]c2ccc(C)cc2c1N` [MLS000079379] is 13-fold lower in EC50: 6830 nM for the first, 544 nM for the second.

`Fc1ccc2nc(Nc3nc4c(s3)CCCC4)sc2c1` [(6-fluoro-1,3-benzothiazol-2-yl)-(4,5,6,7-tetrahydro-1,3-benzothiazol-2-yl)amine] showed an EC50 of 1010 nM.

Same assay, conditions: inactive by the depositor's call

`CCOc1ccc(OCC)c(NC(=O)C2CCCN2S(=O)(=O)c2cccc3cccnc23)c1` (stereo unspecified) [MLS000119093] and `O=C(Nc1nccs1)c1ccc(COc2ccc(F)cc2)o1` [5-[(4-fluoranylphenoxy)methyl]-N-(1,3-thiazol-2-yl)furan-2-carboxamide] are within 1.5-fold of each other in EC50: 12200 nM for the first, 11400 nM for the second.

`O=C(Cc1ccccc1)n1nc(-c2ccccc2)nc1NCc1ccco1` [1-[5-(2-furanylmethylamino)-3-phenyl-1,2,4-triazol-1-yl]-2-phenylethanone] and `Fc1cnc(N2CCOCC2)nc1N1CCc2ccccc21` [1-[5-fluoro-2-(4-morpholinyl)-4-pyrimidinyl]indoline] are within 1.5-fold of each other in EC50: 11300 nM for the first, 13700 nM for the second.

Molecule `CCN(CC)c1ccc(-n2cc3c(=O)n(C)c(=O)n(C)c3c2)cc1` [6-(4-Diethylamino-phenyl)-1,3-dimethyl-1,6-dihydro-pyrrolo[3,4-d]pyrimidine-2,4-dione] has an EC50 of 12400 nM.
